We go through eleven compounds from patent US20010044445A1, “AZOLE INHIBITORS OF CYTOKINE PRODUCTION” (priority 1999, published 2001).

The subject of data set [1] is Human peripheral blood mononuclear cells. Briefly: Human Concanavalin-A Proliferation Assay (Con HU Assay). Format: cell-based. To be noted: concanavalin-A stimulated human PBMC; for pIC50: tritiated thymidine; for inhibition at 10 µM: concentration 10 μm (in parentheses in the cell). Put shortly:
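Proliferation read as tritiated thymidine uptake (0.5 μCi/well, 6 h pulse on day 3) in human PBMC cultured 3 days with 2.5 μg/ml (final) concanavalin-A. Cells, 50,000 per well in supplemented RPMI 1640 with 10% FBS, received compound 15 min before mitogen.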

[2] abbreviates: Homo sapiens, PBMC, 72 h, 3 days, read-out: % Inhibition of proliferation (at concentrations of 1,10, or 100 μm).
The mark [3] stands for this setting: Homo sapiens, PBMC, 72 h, concentration 1 μm (in parentheses in the cell), 3 days, read-out: % Inhibition of proliferation (at concentrations of 1,10, or 100 μm).

pIC50: −log10 of the molar value.

With `O=C(Nc1ccc(-n2nc(C(F)(F)F)cc2C(F)(F)F)cc1)c1ccccc1Cl` [Example 91, N-[4-[3,5-bis(trifluoromethyl)-1H-pyrazol-1-yl]phenyl]-2-chlorobenzamide], the melting point (commonly the temperature of the solid-liquid transition) was in the range of 155 to 157 °C. The inhibition at 100 µM in data set [1] (Homo sapiens, PBMC, 72 h, concentration 100 μm (in parentheses in the cell), 3 days, read-out: % Inhibition of proliferation (at concentrations of 1,10, or 100 μm)) is 99%. Also, the pIC50 (usually −log10 of the IC50, conventionally taken in molar units) in data set [1] (Homo sapiens, PBMC) was 6.86.
In the case of `O=C(Nc1ccc(-n2nc(C(F)(F)F)cc2C(F)(F)F)cc1)c1ccc(F)c(F)c1F` [Example 226, N-[4-[3,5-bis(trifluoromethyl)-1H-pyrazol-1-yl]phenyl]-2,3,4-trifluorobenzamide], the melting point lay in the range of 122 to 124 °C. Moreover, in data set [1] (setting [2]), the inhibition at 10 µM was 100%. The compound further had a pIC50 in data set [1] (Homo sapiens, PBMC) of 7.37.
The compound `CC(C)(C)OC(=O)N1CSCC1C(=O)Nc1ccc(-n2nc(C(F)(F)F)cc2C(F)(F)F)cc1` (stereo not shown) [Example 258, 1,1-Dimethylethyl 4-[[[4-[3,5-bis(trifluoromethyl)-1H-pyrazol-1-yl]phenyl]amino]carbonyl]-3-thiazolidinecarboxylate] yielded a melting point of 82 to 84 °C. For the same compound, the inhibition at 1 µM in data set [1] (setting [3]) turned out to be 16%.
The compound `N#Cc1cc(C(F)(F)F)nn1-c1ccc(NC(=O)c2ccncc2)cc1` [Example 303, N-(4-(5-cyano-3-(trifluoromethyl)-1H-pyrazol-1-yl)phenyl)isonicotinamide] had a melting point of 145 to 146 °C. In data set [1] (Homo sapiens, PBMC), this compound had a pIC50 of 6.31.
In the case of `CC(C(=O)Nc1ccc(-n2nc(C(F)(F)F)cc2C(F)(F)F)cc1)c1ccc(C(=O)c2cccs2)cc1` (stereo not drawn) [Example 178, N-[4-[3,5-bis(trifluoromethyl)-1H-pyrazol-1-yl]phenyl]-α-methyl-4-(2-thienylcarbonyl)benzeneacetamide], the melting point was less than 100 °C. Further, the “% Inhibition of proliferation (at concentrations of 1,10, or 100 μm)” value in data set [1] (concentration 1 μm (in parentheses in the cell), 3 days) is 14(1) %.
For the compound `O=C(Nc1ccc(-n2nc(C(F)(F)F)cc2OC(F)F)cc1)c1cccnc1F` [Example 324, N-(4-(5-(difluoromethoxy)-3-(trifluoromethyl)-1H-pyrazol-1-yl)phenyl)-2-fluoronicotinamide], the melting point fell in the range of 149 to 150 °C. Further, in data set [1] (Homo sapiens, PBMC), the negative-log IC50 (pIC50) was 7.05.
As to `O=C(Nc1ccc(-n2nc(C(F)(F)F)cc2C(F)(F)F)cc1)c1cc(F)c(F)cc1Cl` [Example 223, N-[4-[3,5-bis(trifluoromethyl)-1H-pyrazol-1-yl]phenyl]-2-chloro-4,5-difluorobenzamide], the melting point was 149 to 152 °C. In addition, the inhibition at 10 µM in data set [1] (setting [2]) worked out at 100%. Besides, the pIC50 in data set [1] (Homo sapiens, PBMC) is 7.03.
`CS(=O)(=O)c1csc(C(=O)Nc2ccc(-n3nc(C(F)(F)F)cc3C(F)(F)F)cc2)c1Cl` [Example 165, N-[4-[3,5-bis(trifluoromethyl)-1H-pyrazol-1-yl]phenyl]-3-chloro-4-(methylsulfonyl)-2-thiophenecarboxamide] showed a melting point of 210 to 212 °C. The inhibition at 10 µM in data set [1] (setting [2]) came to 57%. The same compound had a pIC50 in data set [1] (Homo sapiens, PBMC) of 5.17.
Turning to `O=C(Nc1ccc(-n2nc(C(F)(F)F)cc2C(F)(F)F)cc1)c1ccc(F)c(Cl)c1` [Example 210, N-[4-[3,5-bis(trifluoromethyl)-1H-pyrazol-1-yl]phenyl]-3-chloro-4-fluorobenzamide], the melting point was 138 to 139 °C. Moreover, in data set [1] (setting [2]), the inhibition at 10 µM was 100%. The same compound gave a negative-log IC50 (pIC50) in data set [1] (Homo sapiens, PBMC) of 6.62.
As to `N#CCC(=O)Nc1ccc(-n2nc(C(F)(F)F)cc2C(F)(F)F)cc1` [Example 52, N-[4-[3,5-bis(trifluoromethyl)-1H-pyrazol-1-yl]phenyl]-2-cyanoacetamide], the melting point was 140 to 143 °C. Besides, in data set [1] (setting [3]), the inhibition at 1 µM was 26%.
The compound `O=C(Nc1ccc(-n2nc(C(F)(F)F)cc2C(F)(F)F)cc1)c1cc(F)cc(F)c1F` [Example 231, N-[4-[3,5-bis(trifluoromethyl)-1H-pyrazol-1-yl]phenyl]-2,3,5-trifluorobenzamide] registered a melting point of 169 to 170 °C. For the same compound, in data set [1] (setting [2]), the inhibition at 10 µM was 100%. The pIC50 in data set [1] (Homo sapiens, PBMC) was 7.60.
